Laboratory results published in paper PMC2813863, “In Vivo Evaluation of α7 Nicotinic Acetylcholine Receptor Agonists [^11C]A-582941 and [^11C]A-844606 in Mice and Conscious Monkeys” (PLoS ONE, 2010).
Values joined by “and” are separate entries in the source; they are usually repeats but may differ in a detail not shown here. Identical values can stand only once. Like-named read-outs stand apart in the source and are kept apart here.

How the values were obtained:
α7 nAChRs [1] = biological target: α7 nAChRs (Mus musculus, UniProt P49582); details: in vivo
α7 nAChRs (Mus musculus, UniProt P49582), sequence (P49582 23-502): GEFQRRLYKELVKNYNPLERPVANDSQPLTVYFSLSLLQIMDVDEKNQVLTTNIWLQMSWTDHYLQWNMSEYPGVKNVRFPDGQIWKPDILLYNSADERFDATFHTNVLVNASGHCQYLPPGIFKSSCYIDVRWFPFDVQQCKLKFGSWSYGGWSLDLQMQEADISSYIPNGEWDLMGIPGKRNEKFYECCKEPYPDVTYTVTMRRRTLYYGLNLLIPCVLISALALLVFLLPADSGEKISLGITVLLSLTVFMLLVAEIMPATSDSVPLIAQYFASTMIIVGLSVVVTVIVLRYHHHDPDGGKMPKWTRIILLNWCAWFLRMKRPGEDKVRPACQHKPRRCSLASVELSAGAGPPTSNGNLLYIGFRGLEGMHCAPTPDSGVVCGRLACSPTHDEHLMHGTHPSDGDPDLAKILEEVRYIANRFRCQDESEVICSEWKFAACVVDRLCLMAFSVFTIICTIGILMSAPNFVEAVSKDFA
Method: In the other group of mice, a blocking experiment to determine the α7 nAChRs-specific regional brain uptake of the tracers was carried out. Each tracer (2 MBq/0.055–0.096 nmol) was co-injected with each of the following blockers into mice, and 15 ([^11C]A-582941) or 30 ([^11C]A-844606) min later the mice were killed (n = 5) and the tissue uptake of ^11C was expressed as the %ID/g. […] Each blocker was dissolved in 1N HCl to 40 mg/ml and diluted up to 0.4 mg/ml with saline. The co-injected dose was 1 mg/kg. In the control mice the same amount of 0.01 N HCl in saline was co-injected.

α4β2 [2] = details: read-out: K i α4β2; cited from earlier work
α4β2 [3] = details: read-out: K i α4β2; cited from earlier work; remark: listed apart in the source
[4] = cited from earlier work
>75 binding sites = details: 10 µM, exception 5-HT3 receptors; cited from earlier work
5-HT3 receptors [5] = test: Displacement of [^3H]-BRL 43694 (Granisetron) binding
[6] = biological target: heteromeric α4β2 subtypes; details: rat brain membranes; read-out: K i, [^3H]cytisine binding; cited from earlier work
5-HT3 receptors [7] = details: cited from earlier work
α7 nAChRs [8] = details: read-out: IC50, displacement of [^3H]MLA binding; cited from earlier work
α4β2 nAChRs = details: read-out: IC50, displacement of [^3H]cytisine binding to α4β2 nAChRs; cited from earlier work

Compound	% Injected dose/g tissue, Blood (α7 nAChRs [1])	% Injected dose/g tissue, Cerebellum (α7 nAChRs [1])	% Injected dose/g tissue, Cerebral cortex (α7 nAChRs [1])	% Injected dose/g tissue, Hippocampus (α7 nAChRs [1])	% Injected dose/g tissue, Hypothalamus (α7 nAChRs [1])	% Injected dose/g tissue, Medulla oblongata (α7 nAChRs [1])	% Injected dose/g tissue, Midbrain (α7 nAChRs [1])	% Injected dose/g tissue, Striatum (α7 nAChRs [1])	% Injected dose/g tissue, Whole brain (α7 nAChRs [1])	also measured
c1cncc(OC[C@@H]2CCN2)c1 [A-85380, 3-(2(S)-azetidynilmethoxy)pyridine]	0.85±0.06 % Injected dose/g tissue and 0.54±0.12 % Injected dose/g tissue	3.76±0.50 % Injected dose/g tissue and 6.22±1.26 % Injected dose/g tissue	4.53±0.61 % Injected dose/g tissue and 7.57±1.48 % Injected dose/g tissue	3.92±0.54 % Injected dose/g tissue and 5.58±1.26 % Injected dose/g tissue	3.97±0.65 % Injected dose/g tissue and 5.00±0.96 % Injected dose/g tissue	3.99±0.49 % Injected dose/g tissue and 5.46±1.15 % Injected dose/g tissue	4.52±0.68 % Injected dose/g tissue and 6.84±1.71 % Injected dose/g tissue	4.33±0.75 % Injected dose/g tissue and 6.47±1.38 % Injected dose/g tissue	4.26±0.57 % Injected dose/g tissue and 6.64±1.33 % Injected dose/g tissue	Ki (α4β2 [2]): 0.04 nM; Ki (α4β2 [3]): 0.05 nM
CN1CC2CN(c3ccc(-c4ccccc4)nn3)CC2C1 (stereo not shown) [A-582941, 2-methyl-5-[6-phenylpyridazine-3-yl]octahydropyrrolo[3,4-c]pyrrole]	0.61±0.07 % Injected dose/g tissue	5.17±0.97 % Injected dose/g tissue	8.38±1.22 % Injected dose/g tissue	6.48±1.31 % Injected dose/g tissue	4.76±1.17 % Injected dose/g tissue	5.58±1.26 % Injected dose/g tissue	5.80±1.46 % Injected dose/g tissue	6.81±1.05 % Injected dose/g tissue	6.71±1.09 % Injected dose/g tissue	clog P [4]: 2.3; pKa, N-methylated tertiary amine [4]: 8.75; pKa, aminopyridazine [4]: 4.44; log D at pH 7.4 ([4]; pH 7.4): 1.0; displacement of binding of >75 binding sites (>75 binding sites): did not show significant displacement; K i for 5-HT3 receptors relative to that for α7 nAChRs (5-HT3 receptors [5]): ~15 fold; Ki [6]: > 100000 nM; displacement of [^3H]-BRL 43694 (Granisetron) binding (5-HT3 receptors [7]; at 10 µM): > 85%; Ki (5-HT3 receptors [7]; read-out: K i for 5-HT3 receptors): 154 nM
CN1CC2CN(c3ccc4oc5ccccc5c(=O)c4c3)CC2C1 (stereo not shown) [A-844606, 2-(5-methyl-hexahydro-pyrrolo[3,4-c]pyrrol-2-yl)-xanthene-9-one]	0.91±0.10 % Injected dose/g tissue	3.62±0.10 % Injected dose/g tissue	4.78±0.19 % Injected dose/g tissue	4.20±0.55 % Injected dose/g tissue	3.50±0.87 % Injected dose/g tissue	4.04±0.19 % Injected dose/g tissue	4.29±0.11 % Injected dose/g tissue	3.94±0.89 % Injected dose/g tissue	4.27±0.18 % Injected dose/g tissue	IC50 (α7 nAChRs [8]): 11 nM; IC50 (α4β2 nAChRs): > 30000 nM
